Assay results from ChEMBL document CHEMBL1629501, “Regiospecific synthesis and biological evaluation of spirooxindolopyrrolizidines via [3+2] cycloaddition of azomethine ylide” (2010).
≈ marks a conversion by molar mass, not a printed value. Calls of active or inactive are those of the source. The rule behind the calls is not given here.

Tests used:
Escherichia coli = experiment: Antibacterial activity against Escherichia coli ATCC 25835 after 24 hrs by twofold serial dilution method; assay type: functional; settings: ATCC 25835, 24 h
Salmonella typhi = experiment: Antibacterial activity against Salmonella typhi ATCC 24915 after 24 hrs by twofold serial dilution method; assay type: functional, Salmonella enterica subsp. enterica serovar Typhi; settings: Salmonella enterica, ATCC 24915, 24 h
Rhizopus = experiment: Antifungal activity against Rhizopus sp. ATCC 2915 after 72 to 96 hrs by twofold serial dilution method; assay type: functional
Bacillus subtilis = experiment: Antibacterial activity against Bacillus subtilis ATCC 451 after 24 hrs by twofold serial dilution method; assay type: functional; settings: ATCC 451, 24 h
Cryptococcus neoformans = experiment: Antifungal activity against Cryptococcus neoformans ATCC 3312 after 72 to 96 hrs by twofold serial dilution method; assay type: functional
Aspergillus flavus = experiment: Antifungal activity against Aspergillus flavus ATCC 485 after 72 to 96 hrs by twofold serial dilution method; assay type: functional
Aspergillus niger = experiment: Antifungal activity against Aspergillus niger ATCC 598 after 72 to 96 hrs by twofold serial dilution method; assay type: functional
Klebsiella pneumoniae [1] = experiment: Antibacterial activity against Klebsiella pneumoniae ATCC 15490 at 200 ug/ml after 24 hrs by twofold serial dilution method; assay type: functional, organism-based
Staphylococcus aureus = experiment: Antibacterial activity against Staphylococcus aureus ATCC 25825 after 24 hrs by twofold serial dilution method; assay type: functional; settings: ATCC 25825, 24 h
Candida albicans = experiment: Antifungal activity against Candida albicans ATCC 3122 by twofold serial dilution method; assay type: functional
Klebsiella pneumoniae [2] = experiment: Antibacterial activity against Klebsiella pneumoniae ATCC 15490 after 24 hrs by twofold serial dilution method; assay type: functional; settings: ATCC 15490, 24 h

## O=C(c1cccs1)[C@H]1[C@H](c2ccc(Cl)cc2)C2CCCN2[C@]12C(=O)Nc1ccccc12 (stereo partly drawn)
Escherichia coli
  MIC: 25 µg/mL (≈ 55.7 µM)
Salmonella typhi
  MIC: 6.25 µg/mL (≈ 13.9 µM)
Rhizopus
  MIC: 6.25 µg/mL (≈ 13.9 µM)
Bacillus subtilis
  MIC: 12.5 µg/mL (≈ 27.8 µM)
Cryptococcus neoformans
  MIC: 12.5 µg/mL (≈ 27.8 µM)
Aspergillus flavus
  MIC: 100 µg/mL (≈ 223 µM)
Aspergillus niger
  MIC: 25 µg/mL (≈ 55.7 µM)
Klebsiella pneumoniae [1]
  Activity: inactive
Staphylococcus aureus
  MIC: 6.25 µg/mL (≈ 13.9 µM)
Candida albicans
  MIC: 25 µg/mL (≈ 55.7 µM)

## O=C(c1cccs1)[C@H]1[C@H](c2cccc(Br)c2)C2CCCN2[C@]12C(=O)Nc1ccccc12 (stereo partly drawn)
Escherichia coli
  MIC: 50 µg/mL (≈ 101 µM)
Salmonella typhi
  MIC: 100 µg/mL (≈ 203 µM)
Klebsiella pneumoniae [2]
  MIC: 100 µg/mL (≈ 203 µM)
Rhizopus
  MIC: 12.5 µg/mL (≈ 25.3 µM)
Bacillus subtilis
  MIC: 25 µg/mL (≈ 50.7 µM)
Cryptococcus neoformans
  MIC: 25 µg/mL (≈ 50.7 µM)
Aspergillus flavus
  MIC: 200 µg/mL (≈ 405 µM)
Aspergillus niger
  MIC: 100 µg/mL (≈ 203 µM)
Staphylococcus aureus
  MIC: 25 µg/mL (≈ 50.7 µM)
Candida albicans
  MIC: 50 µg/mL (≈ 101 µM)

## O=C(c1cccs1)[C@H]1[C@H](c2ccc(F)cc2)C2CCCN2[C@]12C(=O)Nc1ccccc12 (stereo partly drawn)
Escherichia coli
  MIC: 50 µg/mL (≈ 116 µM)
Salmonella typhi
  MIC: 6.25 µg/mL (≈ 14.5 µM)
Rhizopus
  MIC: 6.25 µg/mL (≈ 14.5 µM)
Bacillus subtilis
  MIC: 25 µg/mL (≈ 57.8 µM)
Cryptococcus neoformans
  MIC: 25 µg/mL (≈ 57.8 µM)
Aspergillus flavus
  MIC: 100 µg/mL (≈ 231 µM)
Aspergillus niger
  MIC: 200 µg/mL (≈ 462 µM)
Klebsiella pneumoniae [1]
  Activity: inactive
Staphylococcus aureus
  MIC: 6.25 µg/mL (≈ 14.5 µM)
Candida albicans
  MIC: 6.25 µg/mL (≈ 14.5 µM)

## COc1ccc([C@@H]2C3CCCN3[C@]3(C(=O)Nc4ccccc43)[C@H]2C(=O)c2cccs2)cc1 (stereo partly drawn)
Escherichia coli
  MIC: 100 µg/mL (≈ 225 µM)
Salmonella typhi
  MIC: 100 µg/mL (≈ 225 µM)
Klebsiella pneumoniae [2]
  MIC: 25 µg/mL (≈ 56.2 µM)
Rhizopus
  MIC: 50 µg/mL (≈ 112 µM)
Bacillus subtilis
  MIC: 50 µg/mL (≈ 112 µM)
Cryptococcus neoformans
  MIC: 50 µg/mL (≈ 112 µM)
Aspergillus flavus
  MIC: 25 µg/mL (≈ 56.2 µM)
Aspergillus niger
  MIC: 100 µg/mL (≈ 225 µM)
Staphylococcus aureus
  MIC: 6.25 µg/mL (≈ 14.1 µM)
Candida albicans
  MIC: 100 µg/mL (≈ 225 µM)

## O=C(c1cccs1)[C@H]1[C@H](c2ccccc2)C2CCCN2[C@]12C(=O)Nc1ccccc12 (stereo partly drawn)
Escherichia coli
  MIC: 100 µg/mL (≈ 241 µM)
Salmonella typhi
  MIC: 100 µg/mL (≈ 241 µM)
Klebsiella pneumoniae [2]
  MIC: 200 µg/mL (≈ 482 µM)
Rhizopus
  MIC: 200 µg/mL (≈ 482 µM)
Bacillus subtilis
  MIC: 100 µg/mL (≈ 241 µM)
Cryptococcus neoformans
  MIC: 50 µg/mL (≈ 121 µM)
Aspergillus flavus
  MIC: 200 µg/mL (≈ 482 µM)
Staphylococcus aureus
  MIC: 50 µg/mL (≈ 121 µM)
Candida albicans
  MIC: 100 µg/mL (≈ 241 µM)

## CN(C)c1ccc([C@@H]2C3CCCN3[C@]3(C(=O)Nc4ccccc43)[C@H]2C(=O)c2cccs2)cc1 (stereo partly drawn)
Escherichia coli
  MIC: 100 µg/mL (≈ 219 µM)
Salmonella typhi
  MIC: 100 µg/mL (≈ 219 µM)
Klebsiella pneumoniae [2]
  MIC: 50 µg/mL (≈ 109 µM)
Rhizopus
  MIC: 50 µg/mL (≈ 109 µM)
Bacillus subtilis
  MIC: 50 µg/mL (≈ 109 µM)
Cryptococcus neoformans
  MIC: 50 µg/mL (≈ 109 µM)
Aspergillus flavus
  MIC: 200 µg/mL (≈ 437 µM)
Aspergillus niger
  MIC: 100 µg/mL (≈ 219 µM)
Staphylococcus aureus
  MIC: 200 µg/mL (≈ 437 µM)
Candida albicans
  MIC: 100 µg/mL (≈ 219 µM)

## CN[C@@H]1[C@H](O[C@H]2[C@H](O[C@H]3[C@H](O)[C@@H](O)[C@H](N=C(N)N)[C@@H](O)[C@@H]3N=C(N)N)O[C@@H](C)[C@]2(O)C=O)O[C@@H](CO)[C@H](O)[C@H]1O [STREPTOMYCIN]
Escherichia coli
  MIC: 12.5 µg/mL (≈ 21.5 µM)
Salmonella typhi
  MIC: 50 µg/mL (≈ 86 µM)
Klebsiella pneumoniae [2]
  MIC: 25 µg/mL (≈ 43 µM)
Bacillus subtilis
  MIC: 12.5 µg/mL (≈ 21.5 µM)
Staphylococcus aureus
  MIC: 50 µg/mL (≈ 86 µM)

## O=C(c1cccs1)[C@H]1[C@H](c2ccc([N+](=O)[O-])cc2)C2CCCN2[C@]12C(=O)Nc1ccccc12 (stereo partly drawn)
Escherichia coli
  MIC: 200 µg/mL (≈ 435 µM)
Salmonella typhi
  MIC: 100 µg/mL (≈ 218 µM)
Klebsiella pneumoniae [2]
  MIC: 50 µg/mL (≈ 109 µM)
Rhizopus
  MIC: 50 µg/mL (≈ 109 µM)
Bacillus subtilis
  MIC: 50 µg/mL (≈ 109 µM)
Cryptococcus neoformans
  MIC: 100 µg/mL (≈ 218 µM)
Aspergillus flavus
  MIC: 200 µg/mL (≈ 435 µM)
Aspergillus niger
  MIC: 100 µg/mL (≈ 218 µM)
Staphylococcus aureus
  MIC: 100 µg/mL (≈ 218 µM)
Candida albicans
  MIC: 200 µg/mL (≈ 435 µM)

## Cc1ccc([C@@H]2C3CCCN3[C@]3(C(=O)Nc4ccccc43)[C@H]2C(=O)c2cccs2)cc1 (stereo partly drawn)
Escherichia coli
  MIC: 50 µg/mL (≈ 117 µM)
Salmonella typhi
  MIC: 6.25 µg/mL (≈ 14.6 µM)
Klebsiella pneumoniae [2]
  MIC: 100 µg/mL (≈ 233 µM)
Rhizopus
  MIC: 100 µg/mL (≈ 233 µM)
Bacillus subtilis
  MIC: 25 µg/mL (≈ 58.3 µM)
Cryptococcus neoformans
  MIC: 100 µg/mL (≈ 233 µM)
Aspergillus flavus
  MIC: 25 µg/mL (≈ 58.3 µM)
Staphylococcus aureus
  MIC: 50 µg/mL (≈ 117 µM)
Candida albicans
  MIC: 100 µg/mL (≈ 233 µM)

## C[C@@H]1[C@H](O)[C@@H](C)/C=C/C=C/C=C/C=C/C=C/C=C/C=C/[C@H](O[C@@H]2O[C@H](C)[C@@H](O)[C@H](N)[C@@H]2O)C[C@@H]2O[C@](O)(C[C@@H](O)C[C@@H](O)[C@H](O)CC[C@@H](O)C[C@@H](O)CC(=O)O[C@H]1C)C[C@H](O)[C@H]2C(=O)O [AMPHOTERICIN B]
Rhizopus
  MIC: 25 µg/mL (≈ 27.1 µM)
Cryptococcus neoformans
  MIC: 25 µg/mL (≈ 27.1 µM)
Aspergillus flavus
  MIC: 50 µg/mL (≈ 54.1 µM)
Aspergillus niger
  MIC: 50 µg/mL (≈ 54.1 µM)
Candida albicans
  MIC: 25 µg/mL (≈ 27.1 µM)
